The values that follow come from US9284531B2, “Differentiation of human pluripotent stem cells into cells expressing mature hepatocyte markers by 2D and bioreactor culture” (Takara Bio Europe AB, priority 2009, dated 2016).

One series concerns HFF. The series is described as follows: HFF feeder cell experiments in 2D cultures and bioreactors (activin A production, proliferation). Type of series: cell-based, human. As to the method: The metabolic activity and differentiation of the cells inside the bioreactors were characterized on a daily basis by measuring soluble factors in the medium outflow and in the recirculating medium. The following parameters were measured using automated clinical chemistry analyzers (Roche Diagnostics, Heidelberg, Germany): α-fetoprotein (AFP), alkaline phosphatase (AP), alanine transaminase (ALT), aspartate transaminase (AST), beta-human chorionic gonadotropin (β-hCG), c-peptide, carcinoembryonic antigen (CEA), cytokeratin fragment 19 (Cyfra 21-1), erythropoetin, estradiol, follicle stimulating hormone (FSH), factors II-V-X-XIII, fibrinogen, gamma-glutamyltransferase (GGT), glucose, lactate, lactate dehydrogenase (LDH), luteinizing hormone, neuronspecific enolase (NSE), osmolality, osteocalcin, pseudocholinesterase (PCHE), prealbumin progesterone, prolactin, S-100, thyroid-stimulating hormone (TSH), tissue plasminogen activator (TPA), transferrin (for a detailed description of the measurement methods see Table 8 in appendix). Additionally glutamine, glutamate, glucose, lactate, ammonium, pH, sodium (Na+), potassium (K+) were measured with a BioProfile 100 Plus device (Nova Biomedical, Waltham, Mass., USA). Activin A, insulin and albumin were measured with enzyme-linked immunosorbent assays (ELISAs) following the manufacturer's recommendations (activin A using products DY338, DY999, DY994, DY995 from R&D Systems, Wiesbaden-Nordenstadt, Germany; insulin using an ELISA from Invitrogen; albumin using an ELISA from Albuwell, Exocell Inc., Philadelphia, Pa., USA). Urea was measured using a colorimetric determination kit (QuantiChrom, BioAssay Systems, Hayward, Calif., USA). Galactose and sorbitol concentrations were measured by enzymatic assays (Roche Diagnostics).
The pluripotency supporting activity of the HFF could be correlated with their production of activin A. To further examine the behaviour of the HFF feeder cells several experiments only with HFF were carried out in 2D cultures and in two bioreactors.
In one experiment, the bioreactor is inoculated with active HFF that will be cultured in medium supplemented with serum and bFGF to stimulate HFF proliferation. Increase of the cell number is monitored by the levels of glucose consumption and lactate production. When a sufficient cell number is reached culture medium is changed to hBS medium for conditioning. Optimal medium exchange rates have to be determined for example measuring activin A and glucose concentrations in the conditioned medium as quality control parameters. A low glucose level might indicate the demand for increasing the medium feed rate and a low activin A level might be a sign for insufficient conditioning unsuitable to promote hESC pluripotency.

A further series concerns CYP3A4. The series is described as follows: CYP P450 activity test in bioreactor cultures (midazolam to 1'OH midazolam). As to conditions: both bioreactors HepDiff-1 and HepDiff-2, days 40 and 47, 3 μM at start. As to the method: (§1) Bioreactor cultures that were treated with the hepatic differentiation protocol were tested or their ability to metabolize phenacetin, diclophenac and midazolam via the phase I cytochrome (CYP) P450 enzymes CYP1A2, CYP2C9 and CYP3A4, respectively. At days 40 and 47 after inoculation of the cells a CYP P450 activity test was performed according to the scheme:
(§2) For this purpose, fresh medium inflow and medium outflow was closed and a cocktail of the test substances was injected into the recirculating medium to get the following concentrations at the beginning of the test: 3 μM Midazolam, 9 μM Diclophenac and 26 μM Phenacetin. During the next 24 hours, the bioreactor was operated in recirculation mode (no fresh medium was added and only the medium recirculation pump recirculates the medium). Samples from the recirculation were taken before starting the experiment and after 1, 4, 8 and 24 hours and analyzed for the metabolites of the test substances by liquid chromatography/mass spectrometry (LC/MS). Analyses were performed at Astrazeneca AB, Gothenburg, Sweden. After the last sample was taken the bioreactor was flushed with fresh medium in single pass mode with two times the volume of the bioreactor and tubing system and then switched to the normal perfusion mode recirculation with fresh medium inflow). […]

For the next series, the system named is CYP1A2. In words: CYP P450 activity test in bioreactor cultures (phenacetin to acetaminophen). The settings on record: bioreactors HepDiff-1 and HepDiff-2, hESC-derived cells, 26 μM at start, 24 h recirculation, LC/MS. Type of series: in vitro ADME, human. As to the method: as §1, §2

Regarding basic fibroblast growth factor [bFGF], the “mitogenic effect on HFF” value in the series with HFF (bioreactor experiment HFF-2, medium supplemented with serum replacement) is “not observed”. For the same molecule, the “activin A production by HFF” value in the series with HFF (medium containing serum replacer) is “stimulated”; in the series on HFF (medium supplemented with serum), “did not stimulate”. Moreover, the “mitogenic effect on active HFF” value with HFF (medium supplemented with serum, 2D and bioreactor experiment HFF-1) is listed as “strong mitogenic effect”.

For `Cc1ncc2n1-c1ccc(Cl)cc1C(c1ccccc1F)=NC2` [midazolam, Midazolam], in the series with CYP3A4, the metabolism of midazolam entry was “no metabolism”.

For the molecule `CCOc1ccc(NC(C)=O)cc1` [phenacetin, Phenacetin], the “metabolism of phenacetin by CYP1A1/1A2” value in the series with CYP1A2 is on record as “Significant metabolism”.
